Experimental findings from patent publication US10829520B2, “Beta-hairpin peptidomimetics” (POLYPHOR AG, priority 2015, dated 2020) are described below.

Where a SMILES comes first, the peptide text is derived from it. Bridges are numbered along the chain shown (N, C = ends). [ ]: non-standard residue; d: D form. Tle = CC(C)(C)[C@H](N)C(=O)O; dDab = NCC[C@@H](N)C(=O)O; Nle = CCCC[C@H](N)C(=O)O; Orn = NCCC[C@H](N)C(=O)O; Dab = NCC[C@H](N)C(=O)O; Dap = NC[C@H](N)C(=O)O

Type in all cases: cell-based
In data set [1] the test system is Acinetobacter baumannii 872842. The settings on record: 872842.
Data set [2] relates to Acinetobacter baumannii DSM 30008. As to conditions: DSM 30008. The gist of the method:
(§1)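 Read-out is the minimal inhibitory concentration in μg/mL, taken as the lowest peptide level without visible growth after 18-20 h at 35° C. Testing followed CLSI broth microdilution in cation-adjusted Mueller-Hinton II broth plus 0.002% Polysorbate 80, with roughly 10^6 CFU/mL.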

Data set [3] has as its system Escherichia coli 926415. The settings on record: 926415.
The subject of data set [4] is Escherichia coli ATCC 25922. As to conditions: ATCC 25922. In short, it runs like this: as §1
Data set [5] concerns Klebsiella pneumoniae 968733. The settings on record: 968733.
Data set [6] concerns Klebsiella pneumoniae SSI #3010. As to conditions: SSI #3010. In short, it runs like this:
as §1

Data set [7] concerns Pseudomonas aeruginosa ATCC 27853. As to conditions: ATCC 27853. In short, it runs like this:
as §1

The test system of data set [8] is human red blood cells (hRBC). The experiment in a line: Hemolysis of human red blood cells. As to conditions: red cells of human, 1 h, 100 μg/mL. The gist of the method:
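Hemolysis was read as supernatant absorbance at 540 nm and expressed as a percentage of Triton X-100 (2.5%) lysis. Washed human red cells (20% v/v) had been exposed to each peptide at 100 μg/mL for 1 h at 37° C.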

For `CCCC[C@@H]1NC(=O)[C@@H]2CCCN2C(=O)[C@H]2CCCN2C(=O)[C@H](CO)NC(=O)[C@H](C)NC(=O)[C@H](C(C)(C)C)NC(=O)[C@@H](NC(=O)[C@H](Cc2c[nH]c3ccccc23)NC(C)=O)CSSC[C@@H](C(=O)N[C@@H](CCCN)C(=O)N[C@H](CCN)C(=O)N[C@H]2CCNC(=O)[C@H]([C@@H](C)O)NC(=O)[C@H](CCN)NC(=O)[C@H](CCN)NC(=O)[C@H](CC(C)C)NC(=O)[C@@H](Cc3ccccc3)NC(=O)[C@H](CCN)NC2=O)NC(=O)[C@H](Cc2ccc(O)cc2)NC(=O)[C@H](CO)NC1=O` [Ex. 49] (Ac-WC[Tle]AS[dP]P[Nle]SYC[Orn][dDab][Dab][Dab][dF]L[Dab][Dab]T; disulfide 2-11; lactam 14-C), the “Acinetobacter baumannii 872842 MIC” value in data set [1] was 1 µg/mL. Besides, in data set [2], the “Acinetobacter baumannii DSM 30008 MIC” value was 0.25 µg/mL. For the same molecule, the “Escherichia coli 926415 MIC” value in data set [3] came to 0.5 µg/mL. In data set [4], the “Escherichia coli ATCC 25922 MIC” value is 0.25 µg/mL. For the same molecule, the “Klebsiella pneumoniae 968733 MIC” value in data set [5] is 1 µg/mL. Also, in data set [6], the “Klebsiella pneumoniae SSI #3010 MIC” value was 0.5 µg/mL. In data set [7], the “Pseudomonas aeruginosa ATCC 27853 MIC” value worked out at 1 µg/mL. Besides, the “Hemolysis at 100 μg/mL” value in data set [8] is reported as under 1%.

In the case of `CCCC[C@@H]1NC(=O)[C@@H]2CCCN2C(=O)[C@H]2CCCN2C(=O)[C@H](CO)NC(=O)[C@H](C)NC(=O)[C@H](C(C)(C)C)NC(=O)[C@@H](NC(=O)[C@H](Cc2c[nH]c3ccccc23)NC(C)=O)CSSC[C@@H](C(=O)N[C@@H](CCN)C(=O)N[C@@H](CN)C(=O)N[C@H]2CCNC(=O)[C@H]([C@@H](C)O)NC(=O)[C@H](CCN)NC(=O)[C@H](CCN)NC(=O)[C@H](CC(C)C)NC(=O)[C@@H](Cc3ccccc3)NC(=O)[C@H](CCN)NC2=O)NC(=O)[C@H](Cc2ccc(O)cc2)NC(=O)[C@H](CO)NC1=O` [Ex. 50] (Ac-WC[Tle]AS[dP]P[Nle]SYC[Dab][Dap][Dab][Dab][dF]L[Dab][Dab]T; disulfide 2-11; lactam 14-C), the “Acinetobacter baumannii 872842 MIC” value in data set [1] was determined as 0.5 µg/mL. Also, the “Acinetobacter baumannii DSM 30008 MIC” value in data set [2] amounted to 0.25 µg/mL. Moreover, in data set [3], the “Escherichia coli 926415 MIC” value is 0.5 µg/mL. Moreover, the “Escherichia coli ATCC 25922 MIC” value in data set [4] is 0.25 µg/mL. Moreover, the “Klebsiella pneumoniae 968733 MIC” value in data set [5] was 2 µg/mL. For the same molecule, the “Klebsiella pneumoniae SSI #3010 MIC” value in data set [6] turned out to be 0.25 µg/mL. For the same molecule, the “Pseudomonas aeruginosa ATCC 27853 MIC” value in data set [7] is 1 µg/mL. Besides, in data set [8], the “Hemolysis at 100 μg/mL” value is reported as 1%.

In the case of `CCCC[C@@H]1NC(=O)[C@@H]2CCCN2C(=O)[C@H]2CCCN2C(=O)[C@H](CO)NC(=O)[C@H](C)NC(=O)[C@H](C(C)(C)C)NC(=O)[C@@H](NC(=O)[C@H](Cc2ccccc2)NC(C)=O)CSSC[C@@H](C(=O)N[C@@H](CCCN)C(=O)N[C@@H](CCN)C(=O)N[C@H]2CCNC(=O)[C@H]([C@@H](C)O)NC(=O)[C@H](CCN)NC(=O)[C@H](CCN)NC(=O)[C@H](CC(C)C)NC(=O)[C@@H](Cc3ccccc3)NC(=O)[C@H](CCN)NC2=O)NC(=O)[C@H](Cc2ccc(O)cc2)NC(=O)[C@H](CO)NC1=O` [Ex. 51] (Ac-FC[Tle]AS[dP]P[Nle]SYC[Orn][Dab][Dab][Dab][dF]L[Dab][Dab]T; disulfide 2-11; lactam 14-C), the “Acinetobacter baumannii 872842 MIC” value in data set [1] worked out at 4 µg/mL. In data set [2], the “Acinetobacter baumannii DSM 30008 MIC” value turned out to be 0.5 µg/mL. Further, the “Escherichia coli 926415 MIC” value in data set [3] was 2 µg/mL. Besides, the “Escherichia coli ATCC 25922 MIC” value in data set [4] was determined as 0.25 µg/mL. For the same molecule, the “Klebsiella pneumoniae 968733 MIC” value in data set [5] turned out to be 4 µg/mL. In addition, in data set [6], the “Klebsiella pneumoniae SSI #3010 MIC” value was found to be 0.5 µg/mL. In addition, the “Pseudomonas aeruginosa ATCC 27853 MIC” value in data set [7] was found to be 1 µg/mL. Moreover, the “Hemolysis at 100 μg/mL” value in data set [8] is listed as under 1%.

Turning to `CCCC[C@@H]1NC(=O)[C@@H]2CCCN2C(=O)[C@H]2CCCN2C(=O)[C@H](C(C)C)NC(=O)[C@H](C)NC(=O)[C@H](Cc2ccc(O)cc2)NC(=O)[C@@H](NC(=O)[C@H](Cc2c[nH]c3ccccc23)NC(C)=O)CSSC[C@@H](C(=O)N[C@@H](CCCN)C(=O)N[C@@H](CCN)C(=O)N[C@H]2CCNC(=O)[C@H]([C@@H](C)O)NC(=O)[C@H](CCN)NC(=O)[C@H](CCN)NC(=O)[C@H](CC(C)C)NC(=O)[C@@H](Cc3ccccc3)NC(=O)[C@H](CCN)NC2=O)NC(=O)[C@H](Cc2ccc(O)cc2)NC(=O)[C@H](CO)NC1=O` [Ex. 52] (Ac-WCYAV[dP]P[Nle]SYC[Orn][Dab][Dab][Dab][dF]L[Dab][Dab]T; disulfide 2-11; lactam 14-C), the “Acinetobacter baumannii 872842 MIC” value in data set [1] was found to be 4 µg/mL. For the same molecule, the “Acinetobacter baumannii DSM 30008 MIC” value in data set [2] worked out at 0.5 µg/mL. Also, in data set [3], the “Escherichia coli 926415 MIC” value amounted to 3 µg/mL. Moreover, the “Escherichia coli ATCC 25922 MIC” value in data set [4] worked out at 0.5 µg/mL. Moreover, in data set [5], the “Klebsiella pneumoniae 968733 MIC” value came to 2 µg/mL. Moreover, in data set [6], the “Klebsiella pneumoniae SSI #3010 MIC” value turned out to be 0.5 µg/mL. The “Pseudomonas aeruginosa ATCC 27853 MIC” value in data set [7] stood at 4 µg/mL. Moreover, the “Hemolysis at 100 μg/mL” value in data set [8] was 2%.

`CCCC[C@@H]1NC(=O)[C@@H]2CCCN2C(=O)[C@@H](CCN)NC(=O)[C@H](CO)NC(=O)[C@H](C)NC(=O)[C@H](C(C)(C)C)NC(=O)[C@@H](NC(=O)[C@H](Cc2c[nH]c3ccccc23)NC(C)=O)CSSC[C@@H](C(=O)N[C@@H](CCCN)C(=O)N[C@@H](CCN)C(=O)N[C@H]2CCNC(=O)[C@H]([C@@H](C)O)NC(=O)[C@H](CCN)NC(=O)[C@H](CCN)NC(=O)[C@H](CC(C)C)NC(=O)[C@@H](Cc3ccccc3)NC(=O)[C@H](CCN)NC2=O)NC(=O)[C@H](Cc2ccc(O)cc2)NC(=O)[C@H](CO)NC1=O` [Ex. 53] (Ac-WC[Tle]AS[dDab]P[Nle]SYC[Orn][Dab][Dab][Dab][dF]L[Dab][Dab]T; disulfide 2-11; lactam 14-C): the “Acinetobacter baumannii 872842 MIC” value in data set [1] was determined as 2 µg/mL. Besides, in data set [2], the “Acinetobacter baumannii DSM 30008 MIC” value was 0.25 µg/mL. For the same molecule, the “Escherichia coli 926415 MIC” value in data set [3] amounted to 1 µg/mL. In data set [4], the “Escherichia coli ATCC 25922 MIC” value worked out at 0.25 µg/mL. Further, in data set [5], the “Klebsiella pneumoniae 968733 MIC” value came out at 8 µg/mL. Moreover, the “Klebsiella pneumoniae SSI #3010 MIC” value in data set [6] came out at 0.5 µg/mL. Moreover, the “Pseudomonas aeruginosa ATCC 27853 MIC” value in data set [7] stood at 2 µg/mL. The “Hemolysis at 100 μg/mL” value in data set [8] is on record as 1%.

As to `CCCC[C@@H]1NC(=O)[C@@H]2CCCN2C(=O)[C@H]2CCCN2C(=O)[C@H](CO)NC(=O)[C@H](C)NC(=O)[C@H](C(C)(C)C)NC(=O)[C@@H](NC(=O)[C@H](Cc2c[nH]c3ccccc23)NC(C)=O)CSSC[C@@H](C(=O)N[C@@H](CCCN)C(=O)N[C@@H](CCN)C(=O)N[C@H]2CCNC(=O)[C@H]([C@@H](C)O)NC(=O)[C@H](CCN)NC(=O)[C@H](CCN)NC(=O)[C@H](CC(C)C)NC(=O)[C@@H](CC(C)C)NC(=O)[C@H](CCN)NC2=O)NC(=O)[C@H](Cc2ccc(O)cc2)NC(=O)[C@H](CO)NC1=O` [Ex. 54] (Ac-WC[Tle]AS[dP]P[Nle]SYC[Orn][Dab][Dab][Dab][dL]L[Dab][Dab]T; disulfide 2-11; lactam 14-C), in data set [1], the “Acinetobacter baumannii 872842 MIC” value was determined as 1 µg/mL. Further, the “Acinetobacter baumannii DSM 30008 MIC” value in data set [2] stood at 0.5 µg/mL. For the same molecule, in data set [3], the “Escherichia coli 926415 MIC” value is 1 µg/mL. For the same molecule, in data set [4], the “Escherichia coli ATCC 25922 MIC” value is 0.25 µg/mL. In addition, the “Klebsiella pneumoniae 968733 MIC” value in data set [5] turned out to be 4 µg/mL. The “Klebsiella pneumoniae SSI #3010 MIC” value in data set [6] was 0.5 µg/mL. In data set [7], the “Pseudomonas aeruginosa ATCC 27853 MIC” value amounted to 2 µg/mL. In addition, in data set [8], the “Hemolysis at 100 μg/mL” value is on record as 1%.

For the molecule `CCCC[C@@H]1NC(=O)[C@@H]2CCCN2C(=O)[C@H]2CCCN2C(=O)[C@H](CO)NC(=O)[C@H](C)NC(=O)[C@H](C(C)(C)C)NC(=O)[C@H](CCN)NC(=O)[C@H](Cc2c[nH]c3ccccc23)NC(=O)[C@@H](NC(C)=O)CSSC[C@@H](C(=O)N[C@@H](CCN)C(=O)N[C@H]2CCNC(=O)[C@H]([C@@H](C)O)NC(=O)[C@H](CCN)NC(=O)[C@H](CCN)NC(=O)[C@H](CC(C)C)NC(=O)[C@@H](Cc3ccccc3)NC(=O)[C@H](CCN)NC2=O)NC(=O)[C@H](CCCN)NC(=O)[C@H](CCN)NC(=O)[C@H](Cc2ccc(O)cc2)NC(=O)[C@H](CO)NC1=O` [Ex. 57] (Ac-CW[Dab][Tle]AS[dP]P[Nle]SY[Dab][Orn]C[Dab][Dab][Dab][dF]L[Dab][Dab]T; disulfide 1-14; lactam 16-C), the “Acinetobacter baumannii 872842 MIC” value in data set [1] stood at 4 µg/mL. Besides, in data set [2], the “Acinetobacter baumannii DSM 30008 MIC” value turned out to be 1 µg/mL. In addition, the “Escherichia coli 926415 MIC” value in data set [3] amounted to 1 µg/mL. For the same molecule, the “Escherichia coli ATCC 25922 MIC” value in data set [4] is 0.25 µg/mL. In data set [5], the “Klebsiella pneumoniae 968733 MIC” value was 8 µg/mL. Besides, the “Klebsiella pneumoniae SSI #3010 MIC” value in data set [6] turned out to be 0.25 µg/mL. In data set [7], the “Pseudomonas aeruginosa ATCC 27853 MIC” value came out at 0.5 µg/mL. Moreover, the “Hemolysis at 100 μg/mL” value in data set [8] is listed as under 1%.
